From ChEMBL document CHEMBL1201862, “PubChem BioAssay data set” (2004)
The source made the active and inactive calls.

Tests used:
Aminopeptidase N = molecular target: T1, Aminopeptidase N (Plasmodium falciparum FcB1/Columbia, UniProt O96935); assay: P. falciparum M1AAP inhibitors, biochemical, fluorogenic H-Leu-NHMec substrate, 1536-well (AID 1445); parameters: species or system Plasmodium falciparum 3D7, 3D7
T1 sequence (O96935 whole entry): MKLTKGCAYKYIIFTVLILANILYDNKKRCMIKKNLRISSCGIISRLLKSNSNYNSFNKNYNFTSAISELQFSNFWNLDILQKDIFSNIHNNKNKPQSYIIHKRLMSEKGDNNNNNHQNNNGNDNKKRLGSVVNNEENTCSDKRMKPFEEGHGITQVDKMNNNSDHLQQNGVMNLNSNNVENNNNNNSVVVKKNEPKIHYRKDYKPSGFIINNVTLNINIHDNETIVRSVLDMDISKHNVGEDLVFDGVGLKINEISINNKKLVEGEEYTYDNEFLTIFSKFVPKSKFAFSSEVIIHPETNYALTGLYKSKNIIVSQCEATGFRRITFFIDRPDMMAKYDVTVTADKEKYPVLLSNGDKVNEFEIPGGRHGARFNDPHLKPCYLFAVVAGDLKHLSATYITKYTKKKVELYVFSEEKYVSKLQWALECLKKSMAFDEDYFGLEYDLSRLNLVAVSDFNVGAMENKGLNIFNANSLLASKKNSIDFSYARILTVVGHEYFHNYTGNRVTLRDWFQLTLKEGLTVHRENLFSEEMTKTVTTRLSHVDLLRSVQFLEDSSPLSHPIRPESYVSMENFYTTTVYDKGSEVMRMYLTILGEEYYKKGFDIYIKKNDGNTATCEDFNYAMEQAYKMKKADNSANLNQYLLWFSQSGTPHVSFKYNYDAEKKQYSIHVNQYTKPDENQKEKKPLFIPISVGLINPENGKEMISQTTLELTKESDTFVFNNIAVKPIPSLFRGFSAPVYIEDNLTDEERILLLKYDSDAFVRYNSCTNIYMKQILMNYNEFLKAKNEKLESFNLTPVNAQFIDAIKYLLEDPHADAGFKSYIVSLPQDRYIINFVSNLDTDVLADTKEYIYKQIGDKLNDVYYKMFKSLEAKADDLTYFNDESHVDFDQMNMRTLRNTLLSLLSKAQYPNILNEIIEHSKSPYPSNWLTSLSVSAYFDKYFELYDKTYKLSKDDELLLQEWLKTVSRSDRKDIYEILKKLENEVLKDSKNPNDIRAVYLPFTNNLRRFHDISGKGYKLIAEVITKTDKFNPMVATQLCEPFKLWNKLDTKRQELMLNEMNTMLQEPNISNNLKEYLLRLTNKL

[1] = molecular target: Endoplasmic reticulum aminopeptidase 1 (Homo sapiens, UniProt Q9NZ08); assay: ERAP1 aminopeptidase inhibitors, dose response, biochemical, cherry-pick, set 2, plate reader (AID 743314)
[2] = human group III sPLA2 inhibitors, dose response, biochemical, QFRET, IC50 (AID 743457);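 note: green fluorescence rise as the enzyme cleaves BODIPY PC-A2 in liposomes; potency for inhibition of the enzyme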
Leucine aminopeptidase = molecular target: T2, Leucine aminopeptidase (Plasmodium falciparum 3D7, UniProt Q8IL11); assay: P. falciparum M17LAP inhibitors, primary screen, biochemical, fluorogenic H-Leu-NHMec substrate, 1536-well (AID 1619); format: functional
T2 sequence (Q8IL11 whole entry): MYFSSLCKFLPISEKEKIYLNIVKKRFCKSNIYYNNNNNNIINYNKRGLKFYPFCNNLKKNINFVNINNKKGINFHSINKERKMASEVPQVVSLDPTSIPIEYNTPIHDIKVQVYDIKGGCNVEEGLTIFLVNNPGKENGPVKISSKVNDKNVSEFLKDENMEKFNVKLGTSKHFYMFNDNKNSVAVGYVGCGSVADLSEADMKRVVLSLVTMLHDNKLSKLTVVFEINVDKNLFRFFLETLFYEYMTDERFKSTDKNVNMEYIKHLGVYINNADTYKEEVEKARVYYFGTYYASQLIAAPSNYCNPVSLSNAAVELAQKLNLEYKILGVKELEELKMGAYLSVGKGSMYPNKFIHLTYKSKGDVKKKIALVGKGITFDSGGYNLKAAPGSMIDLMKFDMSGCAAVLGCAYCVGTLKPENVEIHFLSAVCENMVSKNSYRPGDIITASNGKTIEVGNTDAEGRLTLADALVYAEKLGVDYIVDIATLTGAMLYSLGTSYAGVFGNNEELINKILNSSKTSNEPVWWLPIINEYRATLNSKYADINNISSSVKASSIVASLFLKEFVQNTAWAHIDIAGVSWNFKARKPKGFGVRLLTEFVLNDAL

[3] = molecular target: T3, Heat shock factor protein 1 (Mus musculus, UniProt P38532); assay: inhibition of MG132-induced HSE-luciferase signal, confirmation, cell-based, NIH3T3, luminescence, dose retest (AID 2382); format: functional;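 note: NIH3T3 fibroblasts with HSF1-driven luciferase reporter stressed by proteasome inhibitor MG132; luminescence from HSF1-driven luciferase expression after 8 hours of MG132 stress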
T3 sequence (P38532 whole entry): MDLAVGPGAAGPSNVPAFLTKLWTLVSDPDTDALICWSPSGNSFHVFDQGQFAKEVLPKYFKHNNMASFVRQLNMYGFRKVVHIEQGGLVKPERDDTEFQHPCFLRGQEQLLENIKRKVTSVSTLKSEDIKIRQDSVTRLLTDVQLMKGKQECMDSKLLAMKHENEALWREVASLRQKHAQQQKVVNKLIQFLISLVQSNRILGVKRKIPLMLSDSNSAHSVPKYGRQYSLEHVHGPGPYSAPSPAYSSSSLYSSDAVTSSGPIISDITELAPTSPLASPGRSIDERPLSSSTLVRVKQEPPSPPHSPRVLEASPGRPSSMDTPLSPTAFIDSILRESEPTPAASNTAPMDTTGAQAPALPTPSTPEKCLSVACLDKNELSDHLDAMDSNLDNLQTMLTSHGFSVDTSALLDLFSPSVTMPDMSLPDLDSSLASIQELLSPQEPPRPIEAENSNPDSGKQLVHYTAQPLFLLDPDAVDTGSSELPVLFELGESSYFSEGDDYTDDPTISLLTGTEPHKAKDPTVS

Albumin = Albumin (Bos taurus, UniProt P02769); assay: Counterscreen for inhibitors of T-cell receptor (TCR)-CD3 interaction: Fluorescence-based biochemical high throughput dose response assay to identify inhibitors of T-cell receptor (TCR)-CD3 interaction using a TAMRA-labeled BSA probe.; format: functional
[4] = inhibitors of intracellular T. cruzi replication, confirmation, NIH3T3 host cells, beta-gal luminescence (AID 2044); format: functional, cell-based;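 note: intracellular parasites grown in NIH/3T3 mouse fibroblasts as host cells; luminescent beta-galactosidase reporter signal from transgenic T. cruzi replicating inside host cells; inhibitors lower the luminescence signal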
[5] = cytotoxicity toward NIH3T3 fibroblasts, dose response, counter-screen, cell-based, ATP luminescence, mouse fibroblasts (AID 2010); format: functional;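 note: cells exposed to compound for about 90 hours before reading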
[6] = molecular target: Induced myeloid leukemia cell differentiation protein Mcl-1 (Homo sapiens, UniProt Q07820); format: functional
Protein Tat = Protein Tat (Human immunodeficiency virus type 1 group M subtype B (isolate HXB2)(HIV-1), UniProt P04608); format: functional;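 note: tat binding to TAR RNA read out by fluorescence polarization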
[7] = THP-1 cell cytotoxicity, dose response, cytotoxicity control for Vif-APOBEC3G degradation inhibitor project, THP-1 cells (AID 1117359); format: functional; settings: Human immunodeficiency virus 1, THP-1
[8] = inhibitors of Vif binding to APOBEC3G peptide, primary screen, biochemical, TR-FRET, GST-Vif 1-94, biotin-A3G peptide, dose response retest (AID 1117319); format: functional;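 note: TR-FRET signal of purified GST-Vif binding a biotinylated A3G peptide; inhibitors lower the FRET signal by blocking Vif and A3G binding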
[9] = HeLa 2N DNA content increase, dose response, cell-based, IC50 (AID 1117349); format: functional
[10] = Concentration-dependent survival of SW480 colon cancer line, luminescence detection with CellTiter-Glo, half-maximal inhibitory concentration (AID 1117338); format: functional
[11] = RKO cell viability reduction, dose response, CellTiter-Glo luminescence (AID 1117322); format: functional
[12] = cytotoxicity toward HCT116 cells – cell-based, CellTiter-Glo luminescence, IC50, dose response (AID 1117332); format: functional; settings: HCT-116
[13] = SNU-C1 cell viability reduction, dose response, CellTiter-Glo luminescence (AID 1117323); format: functional, cell-based
[14] = cytotoxicity toward Colo320 cells – cell-based, CellTiter-Glo luminescence, IC50, dose response (AID 1117334); format: functional; settings: COLO 320
[15] = HeLa 4N DNA content increase, dose response, cell-based, IC50 (AID 1117351); format: functional
[16] = cytotoxicity toward HT-29 cells – cell-based, CellTiter-Glo luminescence, IC50, dose response (AID 1117330); format: functional
[17] = CellTiter-Glo luminescent dose response of DLD-1 viability loss (AID 1117352); format: functional
[18] = HCT116 cell viability decrease, GSK3B pretreatment – CellTiter-Glo, IC50, dose response (AID 1117339); format: functional; settings: HCT-116
Major prion protein = Major prion protein (Homo sapiens, UniProt P04156); format: functional, cell-based

Q: Which results are given for `CCCc1cc(=O)oc2c(CN(CC)CC)c(O)c(Cl)cc12`?
A: IC50 (Aminopeptidase N): 37 µM (active); AC50 [1]: 7.13 µM (active)

Q: With `Cc1cc(C(=O)NN=C(S)NC2CCCCC2)cs1` as the compound, how does the IC50 [2] read?
A: > 122 µM (inactive)

Q: For `CCn1c(S)nnc1-c1cccn(Cc2ccc(Cl)cc2Cl)c1=O`, which IC50 [2] is on record?
A: > 122 µM (inactive)

Q: Which IC50 (Leucine aminopeptidase) does the source give for `CC/C(NNC(=O)c1ccccc1O)=C1/C(=O)NC(=O)N(Cc2ccccc2)C1=O` here?
A: 47.3 µM (active)

Q: And the IC50 (Aminopeptidase N)?
A: 7.8 µM (active)

Q: And the EC50 [3]?
A: 30.2 µM (active)

Q: What about the IC50 (Albumin) of the same compound?
A: > 94.1 µM (inactive)

Q: What does the source list for `COc1ccccc1C1=Nc2cccc3cccc(c23)N1`?
A: EC50 [4]: 6.83 µM (active); EC50 [5]: > 30 µM (not active); IC50 [6]: < 0.4 µM (not active); IC50 (Protein Tat): > 100 µM (inconclusive); CC50 [7]: > 40 µM (active); IC50 [8]: > 63.3 µM (active)

Q: For `O=C(CCl)c1ccc(Cl)cc1Cl`, which IC50 [9] is on record?
A: 0.514 µM (active)

Q: What about the IC50 [10] of the same compound?
A: 1.25 µM (active)

Q: And the IC50 [11]?
A: 4.3 µM (active)

Q: What about the IC50 [12] of the same compound?
A: 6.3 µM (inactive)

Q: What about the IC50 [13] of the same compound?
A: 2.98 µM (active)

Q: And the IC50 [14]?
A: 0.53 µM (active)

Q: What about the IC50 [15] of the same compound?
A: > 10 µM (inactive)

Q: And the IC50 [16]?
A: 8.52 µM (inactive)

Q: What about the IC50 [17] of the same compound?
A: 2.07 µM (active)

Q: And the IC50 [18]?
A: 1.1 µM (active)

Q: What does the source list for `CCCCOc1ccc(C(=O)C2=C(O)C(=O)N(Cc3cccnc3)C2c2ccncc2)c(C)c1` (centres undefined)?
A: IC50 (Major prion protein): 4.21 µM (active); IC50 (cells): > 138 µM (inactive)

Q: For `Cc1nc(SCC(=O)NNC(=O)c2ccc(F)cc2)c2ccccc2n1`, which IC50 (Major prion protein) is on record?
A: 2.26 µM (active)

Q: What about the IC50 (cells) of the same compound?
A: > 138 µM (inactive)

Q: Which AC50 [1] does the source give for `O=c1ccc2cc(O[C@@H]3O[C@H](CO)[C@@H](O)[C@H](O)[C@H]3O)c(O)cc2o1` here?
A: 1.72 µM (active)
